This is an account of results in patent publication US20260216170A1, “TETRAHYDROISOQUINOLINE HETEROBIFUNCTIONAL BCL-XL DEGRADERS” (Treeline Biosciences, Inc., priority 2023, published 2026).

This test concerns the target T1, Human BCL-XL protein (N-terminal HiBiT tagged BCL-XL expressed in HT1080 cells) (Homo sapiens, UniProt Q07817).
T1 construct: expressed in transfected cells; host or cells: HT-1080 (ATCC CCL-121), stably transduced with lentivirus pLV-UBC-N-HiBiT-BCL-XL-PGK-puro and selected with puromycin
Nature of the test: HiBiT Based Degradation Assay. It is filed as cell-based. As to conditions: 24 hours incubation; for DC50: BCL-XL degradation, HT1080 cells expressing N-HiBiT-BCL-XL, normalized with DMSO control, geometric mean for multiple data points, read-out: EC50 (24 h); for Ymin (24 h): bottom of BCL-XL degradation curve (remaining HiBiT-BCL-XL signal vs DMSO control), HT1080 cells. In outline: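 BCL-XL degradation was read as Nano-Glo HiBiT lytic luminescence relative to DMSO after a 24 h compound treatment of HT1080 cells carrying stably integrated N-HiBiT-BCL-XL. EC50 values come from four-parameter logistic curves, with the hook-curve minimum fixed as bottom, and are geometric means where tested repeatedly.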
On the technique in general: The HiBiT peptide binds its large partner to form an active luciferase.

Where only a bound is given, the exact number is not on record here.

T1 sequence (Q07817 whole entry): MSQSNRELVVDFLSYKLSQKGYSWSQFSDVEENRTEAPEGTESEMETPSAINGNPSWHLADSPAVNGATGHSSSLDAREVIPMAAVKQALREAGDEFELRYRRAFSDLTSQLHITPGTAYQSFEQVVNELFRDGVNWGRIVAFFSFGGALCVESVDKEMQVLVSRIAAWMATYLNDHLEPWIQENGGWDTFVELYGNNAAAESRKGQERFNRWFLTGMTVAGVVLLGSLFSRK

Consider `Cc1cc(OC[C@@H]2C[C@H]2C2CCN(CC(=O)Nc3ccc4c(C5CCC(=O)NC5=O)nn(C)c4c3)CC2)ccc1-c1ccc(N2CCc3cccc(C(=O)Nc4nc5ccccc5s4)c3C2)nc1C(=O)O` (single isomer, unassigned) [Compound 1003b], for which the DC50 is under 10 nM and the “Ymin (24 h)” value is “B (30% ≤ Ymin < 50%)”.
The like results for `Cc1cc(NCCCC2CCN(CC(=O)Nc3ccc4c(C5CCC(=O)NC5=O)nn(C)c4c3)CC2)ccc1-c1ccc(N2CCc3cccc(C(=O)Nc4nc5ccccc5s4)c3C2)nc1C(=O)O` (centres unmarked) [Compound 218] were, in that order, under 10 nM and “A (Ymin < 30%)”.
For `Cc1c(OCC2CC3(CCN(CC(=O)Nc4ccc5c(C6CCC(=O)NC6=O)nn(C)c5c4F)CC3)C2)cccc1-c1ccc(N2CCc3cccc(C(=O)Nc4nc5ccccc5s4)c3C2)nc1C(=O)O` (centres unmarked) [Compound 120] the same measures were 10 to 100 nM and “B (30% ≤ Ymin < 50%)”.
For `Cc1c(OCC[C@@H]2C[C@H]3CC[C@@H](C2)N3CC(=O)Nc2ccc3c(C4CCC(=O)NC4=O)nn(C)c3c2)cccc1-c1ccc(N2CCc3cccc(C(=O)Nc4nc5ccccc5s4)c3C2)nc1C(=O)O` (some centres unmarked) [Compound 174a] the same measures were under 10 nM and “A (Ymin < 30%)”.
Take `Cn1nc(C2CCC(=O)NC2=O)c2ccc(NC(=O)CN3CCC4(CC3)CC(Oc3ccc(-c5ccc(N6CCc7ccnc(C(=O)Nc8nc9ccccc9s8)c7C6)nc5C(=O)O)c(C(F)(F)F)c3)C4)cc21` (centres unmarked) [Compound 168, 6-[8-(1,3-benzothiazol-2-ylcarbamoyl)-3,4-dihydro-1H-2,7-naphthyridin-2-yl]-3-[4-[[7-[2-[[3-(2,6-dioxo-3-piperidyl)-1-methyl-indazol-6-yl]amino]-2-oxo-ethyl]-7-azaspiro[3.5]nonan-2-yl]oxy]-2-(trifluoromethyl)phenyl]pyridine-2-carboxylic acid]: the DC50 is under 10 nM and the “Ymin (24 h)” value was “B (30% ≤ Ymin < 50%)”.
On to `Cc1cc(OC2CC3(CCN(CC(=O)Nc4ccc5c(C6CCC(=O)NC6=O)nn(C)c5c4F)CC3)C2)ccc1-c1ccc(N2CCc3cccc(C(=O)Nc4nc5ccccc5s4)c3C2)nc1C(=O)O` (centres unmarked) [Compound 191], for which the DC50 is under 10 nM and the “Ymin (24 h)” value is recorded as “B (30% ≤ Ymin < 50%)”.
For `Cc1cc(O[C@H](C)CCC2CCN(CC(=O)Nc3ccc4c(C5CCC(=O)NC5=O)nn(C)c4c3)CC2)ccc1-c1ccc(N2CCc3ccnc(C(=O)Nc4nc5ccccc5s4)c3C2)nc1C(=O)O` (single isomer, unassigned) [Compound 133a] the same measures were 10 to 100 nM and “B (30% ≤ Ymin < 50%)”.
For the compound `Cc1c(OCC2CC3(CCN(CC(=O)Nc4ccc5c(C6CCC(=O)NC6=O)nn(C)c5c4)CC3)C2)cccc1-c1ccc(N2CCc3ccnc(C(=O)Nc4nc5ccccc5s4)c3C2)nc1C(=O)O` (centres unmarked) [Compound 134, 6-(8-(benzo[d]thiazol-2-ylcarbamoyl)-3,4-dihydro-2,7-naphthyridin-2(1H)-yl)-3-(3-((7-(2-((3-(2,6-dioxopiperidin-3-yl)-1-methyl-1H-indazol-6-yl)amino)-2-oxoethyl)-7-azaspiro[3.5]nonan-2-yl)methoxy)-2-methylphenyl)picolinic acid], the DC50 was 10 to 100 nM and the “Ymin (24 h)” value is reported as “B (30% ≤ Ymin < 50%)”.
On to `Cn1nc(C2CCC(=O)NC2=O)c2ccc(NC(=O)CN3CCC(CCCOc4ccc(-c5ccc(N6CCc7cccc(C(=O)Nc8nc9ccccc9s8)c7C6)nc5C(=O)O)c(F)c4)CC3)c(F)c21` (centres unmarked) [Compound 212, 6-(8-(benzo[d]thiazol-2-ylcarbamoyl)-3,4-dihydroisoquinolin-2(1H)-yl)-3-(4-(3-(1-(2-((3-(2,6-dioxopiperidin-3-yl)-7-fluoro-1-methyl-1H-indazol-6-yl)amino)-2-oxoethyl)piperidin-4-yl)propoxy)-2-fluorophenyl)picolinic acid], for which the DC50 was 10 to 100 nM and the “Ymin (24 h)” value is “B (30% ≤ Ymin < 50%)”.
As for `Cc1cc(OCCCC2CCN(CC(=O)Nc3ccc4c(C5CCC(=O)NC5=O)nn(C)c4c3)CC2)ccc1-c1ccc(N2CCc3ccnc(C(=O)Nc4nc5ccccc5s4)c3C2)nc1C(=O)O` (centres unmarked) [Compound 141, 6-[8-(1,3-benzothiazol-2-ylcarbamoyl)-3,4-dihydro-1H-2,7-naphthyridin-2-yl]-3-[4-[3-[1-[2-[[3-(2,6-dioxo-3-piperidyl)-1-methyl-indazol-6-yl]amino]-2-oxo-ethyl]-4-piperidyl]propoxy]-2-methyl-phenyl]pyridine-2-carboxylic acid], the DC50 is under 10 nM and the “Ymin (24 h)” value is on record as “A (Ymin < 30%)”.
Take `Cc1cc(O[C@@H](C)CCC2CCN(CC(=O)Nc3ccc4c(C5CCC(=O)NC5=O)nn(C)c4c3)CC2)ccc1-c1ccc(N2CCc3ccnc(C(=O)Nc4nc5ccccc5s4)c3C2)nc1C(=O)O` (single isomer, unassigned) [Compound 133b]: the DC50 was in the range of 10 to 100 nM and the “Ymin (24 h)” value is listed as “A (Ymin < 30%)”.
The like results for `Cc1c(OC2CCC3(CC2)CCN(CC(=O)Nc2ccc4c(C5CCC(=O)NC5=O)nn(C)c4c2)CC3)cccc1-c1ccc(N2CCc3cccc(C(=O)Nc4nc5ccccc5s4)c3C2)nc1C(=O)O` (centres unmarked) [Compound 119] were, in that order, under 10 nM and “B (30% ≤ Ymin < 50%)”.
For `Cc1cc(OC[C@H]2C[C@H]2CC2CCN(CC(=O)Nc3ccc4c(C5CCC(=O)NC5=O)nn(C)c4c3)CC2)ccc1-c1ccc(N2CCc3cccc(C(=O)Nc4nc5ccccc5s4)c3C2)nc1C(=O)O` (single isomer, unassigned) [Compound 1002b] the same measures were under 10 nM and “B (30% ≤ Ymin < 50%)”.
The like results for `Cc1cc(OC2CC3(CCN(CC(=O)Nc4ccc5c(C6CCC(=O)NC6=O)nn(C)c5c4F)CC3)C2)ccc1-c1ccc(N2CCc3ccnc(C(=O)Nc4nc5ccccc5s4)c3C2)nc1C(=O)O` (centres unmarked) [Compound 205] were, in that order, under 10 nM and “A (Ymin < 30%)”.
As for `Cc1cc(O[C@H](C)CCC2CCN(CC(=O)Nc3ccc4c(C5CCC(=O)NC5=O)nn(C)c4n3)CC2)ccc1-c1ccc(N2CCc3cccc(C(=O)Nc4nc5ccccc5s4)c3C2)nc1C(=O)O` (single isomer, unassigned) [Compound 225b], the DC50 is 10 to 100 nM and the “Ymin (24 h)” value is recorded as “B (30% ≤ Ymin < 50%)”.
For `Cc1cc(OC[C@H]2C[C@@H]2CC2CCN(CC(=O)Nc3ccc4c(C5CCC(=O)NC5=O)nn(C)c4c3)CC2)ccc1-c1ccc(N2CCc3cccc(C(=O)Nc4nc5ccccc5s4)c3C2)nc1C(=O)O` (single isomer, unassigned) [Compound 1002a] the same measures were under 10 nM and “B (30% ≤ Ymin < 50%)”.
For the compound `COc1c(NC(=O)CN2CCC(CCCOc3ccc(-c4ccc(N5CCc6cccc(C(=O)Nc7nc8ccccc8s7)c6C5)nc4C(=O)O)c(C)c3)CC2)ccc2c(C3CCC(=O)NC3=O)nn(C)c12` (centres unmarked) [Compound 105, 6-[8-(1,3-benzothiazol-2-ylcarbamoyl)-3,4-dihydro-1H-isoquinolin-2-yl]-3-[4-[3-[1-[2-[[3-(2,6-dioxo-3-piperidyl)-7-methoxy-1-methyl-indazol-6-yl]amino]-2-oxo-ethyl]-4-piperidyl]propoxy]-2-methyl-phenyl]pyridine-2-carboxylic acid], the DC50 was 10 to 100 nM and the “Ymin (24 h)” value is given as “A (Ymin < 30%)”.
For `Cn1nc(C2CCC(=O)NC2=O)c2ccc(NC(=O)CN3CCC4(CC3)CC(Oc3cccc(-c5ccc(N6CCc7ccnc(C(=O)Nc8nc9ccccc9s8)c7C6)nc5C(=O)O)c3C(F)(F)F)C4)nc21` (centres unmarked) [Compound 202, 6-(8-(benzo[d]thiazol-2-ylcarbamoyl)-3,4-dihydro-2,7-naphthyridin-2(1H)-yl)-3-(3-((7-(2-((3-(2,6-dioxopiperidin-3-yl)-1-methyl-1H-pyrazolo[3,4-b]pyridin-6-yl)amino)-2-oxoethyl)-7-azaspiro[3.5]nonan-2-yl)oxy)-2-(trifluoromethyl)phenyl)picolinic acid] the same measures were under 10 nM and “B (30% ≤ Ymin < 50%)”.
For `Cc1c(OC2CC3(CCN(CC(=O)Nc4ccc5c(C6CCC(=O)NC6=O)nn(C)c5n4)CC3)C2)cccc1-c1ccc(N2CCc3ccnc(C(=O)Nc4nc5ccccc5s4)c3C2)nc1C(=O)O` (centres unmarked) [Compound 207, 6-[8-(1,3-benzothiazol-2-ylcarbamoyl)-3,4-dihydro-1H-2,7-naphthyridin-2-yl]-3-[3-[[7-[2-[[3-(2,6-dioxo-3-piperidyl)-1-methyl-pyrazolo[3,4-b]pyridin-6-yl]amino]-2-oxo-ethyl]-7-azaspiro[3.5]nonan-2-yl]oxy]-2-methyl-phenyl]pyridine-2-carboxylic acid] the same measures were under 10 nM and “B (30% ≤ Ymin < 50%)”.
Consider `Cc1c(OCCCCC2CCN(Cc3nc4cc(C5CCC(=O)NC5=O)ccc4n3C)CC2)cccc1-c1ccc(N2CCc3cccc(C(=O)Nc4nc5ccccc5s4)c3C2)nc1C(=O)O` (centres unmarked) [Compound 2002], for which the DC50 lay in the range of 10 to 100 nM and the “Ymin (24 h)” value is “C (50% ≤ Ymin < 70%)”.
`Cn1nc(C2CCC(=O)NC2=O)c2ccc(NC(=O)CN3CCC(CCCOc4ccc(-c5ccc(N6CCc7cccc(C(=O)Nc8nc9ccccc9s8)c7C6)nc5C(=O)O)c(F)c4)CC3)cc21` (centres unmarked) [Compound 199]: the DC50 was under 10 nM and the “Ymin (24 h)” value was “A (Ymin < 30%)”.
The like results for `COc1c(NC(=O)CN2CCC(CC[C@H](C)Oc3ccc(-c4ccc(N5CCc6cccc(C(=O)Nc7nc8ccccc8s7)c6C5)nc4C(=O)O)c(C)c3)CC2)ccc2c(C3CCC(=O)NC3=O)nn(C)c12` (single isomer, unassigned) [Compound 223a] were, in that order, 10 to 100 nM and “B (30% ≤ Ymin < 50%)”.
